{
  "source": "patent US20120040976A1",
  "about": "“SMALL MOLECULE IMMUNOMODULATORS FOR ALZHEIMER'S DISEASE” (HUMAN BIOMOLECULAR RESEARCH INSTITUTE, priority 2008, published 2012)",
  "key": {"TLR 9": {"tested_on": "TLR 9", "experiment": "TLR 9 transcription ratio, AD patient / control PBMCs (qPCR)", "type": "cell-based, human", "settings": "Aβ stimulation", "procedure": "(§1) qPCR reactions of cultured monocyte cDNAs. One μL total cellular cDNA per reaction is used in triplicate reactions for each test gene, and for each culture treatment. SYBR-Green reactions were run on a Continuous Fluorescence real-time thermocycler and analyzed. Cycle threshold (Ct) values are recorded for each replicate reaction, and are then averaged and normalized against mean Ct values from one or more control genes. Fold-expression differences relative to untreated cells are determined using the 2^−ΔΔCt method as previously described. Data from the curcumin concentration range are plotted in order to determine EC50 values (concentrations producing one-half maximal stimulant activity), which are used for comparisons of potency between different compounds. Data are also evaluated for each gene with regard to sensitivity, maximally effective concentration of curcuminoid, response to Aβ, and overall magnitude of fold-expression changes.\n(§2) MGAT3 and/or TLR transcription were tested by qPCR in human monocyte cells treated with curcuminoids and compared the results to those treated with vehicle (Table 7). As discussed above, activation or up-regulation of macrophage MGAT3 or TLR's results in many functional outcomes, including the enhancement of […] and removal of Aβ, increased apoptosis, secretion of inflammatory cytokines, and other anti-AD antimicrobial activities. […]"}, "TLR 3": {"tested_on": "TLR 3", "experiment": "TLR 3 transcription ratio, AD patient / control PBMCs (qPCR)", "type": "cell-based, human", "settings": "Aβ stimulation", "outline": "(§3)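 Via qPCR on cultured human monocyte cDNA, curcuminoid-treated versus vehicle, with Aβ stimulation, in AD patient and control cells. SYBR-Green triplicate reactions; Ct averaged, normalised to control genes, fold change by 2^−ΔΔCt. EC50 taken from curcumin concentration-response data.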"}, "[1]": {"experiment": "Chemical stability (H2O, pH 7.4)", "type": "physicochemical"}, "TLR 10": {"tested_on": "TLR 10", "experiment": "TLR 10 transcription ratio, AD patient / control PBMCs (qPCR)", "type": "cell-based, human", "settings": "Aβ stimulation", "procedure": "as §1, §2"}, "[2]": {"tested_on": "human monocytic cell line U-937", "experiment": "Protection of U-937 cells against oxidative stress (H2O2, Trypan-blue viability)", "type": "cell-based", "procedure": "Protective effect of curcumin against oxidative stress. We tested the potential of curcumin to protect cells in vitro under conditions of oxidative stress. Natural curcumin has been reported to have antioxidant activity and to scavenge free radicals, but reports of the direct effects of curcumin or analogs upon cell viability under conditions of oxidative stress are limited. Viability of the human monocytic cell line U-937 was evaluated in the presence of H2O2, plus varying concentrations of natural BDC (range 0-10 nM). We observed that these cells are more sensitive to oxidative stress than are the neuroblastoma SHSY5Y cells, and so reduced concentrations of H2O2 were used for this experiment. […] However, concentrations of BDC between 0.1-10 nM (i.e. similar concentration range inducing maximal gene expression increases +Aβ in these cells) increased 2-hour cell survival rates up to 90%. […] Assays such as Trypan-blue staining, or other biochemical measures of cell toxicity/survival (e.g. ATP levels) may be useful for evaluating curcumin analogs for their neuroprotective effects against oxidative stress and as candidate AD or ALS drugs."}, "TLR 6": {"tested_on": "TLR 6", "experiment": "TLR 6 transcription ratio, AD patient / control PBMCs (qPCR)", "type": "cell-based, human", "settings": "Aβ stimulation", "procedure": "as §1, §2"}, "TLR 5": {"tested_on": "TLR 5", "experiment": "TLR 5 transcription ratio, AD patient / control PBMCs (qPCR)", "type": "cell-based, human", "settings": "Aβ stimulation", "procedure": "as §1, §2"}, "TLR 4": {"tested_on": "TLR 4", "experiment": "TLR 4 transcription ratio, AD patient / control PBMCs (qPCR)", "type": "cell-based, human", "settings": "Aβ stimulation", "outline": "as §3"}, "TLR 1": {"tested_on": "TLR 1", "experiment": "TLR 1 transcription ratio, AD patient / control PBMCs (qPCR)", "type": "cell-based, human", "settings": "Aβ stimulation", "procedure": "as §1, §2"}, "TLR 7": {"tested_on": "TLR 7", "experiment": "TLR 7 transcription ratio, AD patient / control PBMCs (qPCR)", "type": "cell-based, human", "settings": "Aβ stimulation", "procedure": "as §1, §2"}, "[3]": {"experiment": "Metabolic stability in human S9 fraction", "type": "in vitro ADME", "settings": "read-out: Half life, t1/2 S9"}, "TLR 2": {"tested_on": "TLR 2", "experiment": "TLR 2 transcription ratio, AD patient / control PBMCs (qPCR)", "type": "cell-based, human", "settings": "Aβ stimulation", "outline": "as §3"}, "VDR": {"tested_on": "VDR", "experiment": "VDR gene expression by qPCR in U-937 human monocytic cells treated with curcumins plus Aβ", "type": "cell-based", "procedure": "(§4) Cell culture conditions for monocytic cell lines. Human and mouse monocyte cell lines are grown in RPMI-1640 medium with 10% fetal bovine serum (FBS), plus glutamine and pen/strep. For treatment with compounds (curcuminoids+/−Aβ), replicate sets of 0.5-1.0 mL cultures containing 1-2×10^6 cells are set up in the wells of 48-well tissue culture plates. Both replicate sets have at least one control well receiving no added curcuminoid to provide baseline expression controls for untreated, and Aβ-only treated cells. Remaining wells receive curcuminoid in a range of 10-fold serial dilutions in DMSO, typically from […] Cultures are incubated for 20-24 hours (“overnight”) at 37° C. in atmosphere with 5% CO2. After one overnight, to one of replicate sets of cultures is added Aβ (1-42) peptide to a final concentration of 5 μg/mL.\n(§5) RNA isolation and cDNA synthesis. After the first overnight incubation in the presence of curcuminoid, cells from one replicate set of wells are collected by centifugation. RNAs are extracted from pelleted cells using miniprep column kits following manufacturer's protocol for animal cells. […] of total cellular RNA from each well is quantitated using a Nanodrop spectrophotometer, and first-strand total cDNA is prepared from 0.3-1.0 μg RNA by random-hexamer priming. Following the second 20 hr. incubation in the presence of Aβ, RNA extractions and cDNA synthesis are similarly performed.\n(§6) Assay development. Gene-specific mRNA levels are determined using a real-time thermocycler, and by normalizing to expression of one or more control genes. Assays for quantifying mRNA levels are based on gene sequences reported in NCBI Genbank. PCR oligonucleotide primers are selected spanning introns to minimize the opportunity for amplication from any contaminating genomic DNA in the RNA preps. Oligonucleotides are typically tested and used at a concentration of 200 nM in qPCR reactions containing SYBR dye. Control reactions include template from cDNA synthesis reactions either + or − reverse transcriptase (RT), as well as no-template controls (ntc). All reactions are performed in triplicate. Reactions are typically run with 40 cycles of 95° C. (10 sec) and 58° C. (30 sec). Melt curves based on incremental 0.5° C. increases are determined for new assays to test for uniformity of amplified products. Reaction conditions are modified as needed depending on initial test results. ‘Working’ assays are selected based on clear RNA-dependent amplification and absence of product in ‘ntc’ reactions. The following assay primers are used: […]\nas §1\n(§7) Data showing in vitro up-regulation of genes associated with Aβ phagocytosis in response to curcumins. Natural curcumins and synthetic analogs were tested in U-937 human monocyte cells in vitro for their ability to modulate expression of the genes MGAT3 and TLRs −2, −3, and −4. […]"}, "TLR3": {"tested_on": "TLR3", "experiment": "TLR3 gene expression by qPCR in U-937 human monocytic cells treated with curcumins plus Aβ", "type": "cell-based", "procedure": "as §4, §5, §6, §1, §7"}, "[4]": {"settings": "human monocytic cells (U-937), curcumin plus Aβ"}},
  "data": [
    {"compound": "O=C(/C=C(O)/C=C/c1ccc(O)cc1)/C=C/c1ccc(O)cc1", "note": "[Compound 1, 5-Hydroxy-1,7-bis-(4-hydroxy-phenyl)-hepta-1,4,6-trien-3-one, reference compound]", "values": [
      {"measurement": "Relative ratio of TLR 9 transcription in AD patient / control PBMC's", "setting": "TLR 9", "value": "TLR 9 ++ ((++) indicates a ratio of 1.5-2.0)"},
      {"measurement": "Relative ratio of TLR 3 transcription in AD patient / control PBMC's", "setting": "TLR 3", "value": "TLR 3 ++ ((++) indicates a ratio of 1.5-2.0)"},
      {"measurement": "half-life", "setting": "[1]; water (aqueous solution), pH 7.4, read-out: Chemical stability t1/2 pH 7.4 (converted)", "value": 14, "unit": "min"},
      {"measurement": "half-life", "setting": "[1]; water, H2O, read-out: Chemical stability t1/2 H2O (converted)", "value": 60, "unit": "min"},
      {"measurement": "Relative ratio of TLR 10 transcription in AD patient / control PBMC's", "setting": "TLR 10", "value": "TLR 10 ++ ((++) indicates a ratio of 1.5-2.0)"},
      {"measurement": "2-hour cell survival rate", "setting": "[2]; U-937, 100 μM H2O2, BDC 0.1-10 nM, Trypan-blue", "value": "up to 90%"},
      {"measurement": "Cell viability above 0.1-10 nM concentration range", "setting": "[2]; U-937, in combination with H2O2", "value": "decreased"},
      {"measurement": "Relative ratio of TLR 6 transcription in AD patient / control PBMC's", "setting": "TLR 6", "value": "TLR 6 + ((+) indicates a ratio of 1.0-1.5)"},
      {"measurement": "Relative ratio of TLR 5 transcription in AD patient / control PBMC's", "setting": "TLR 5", "value": "TLR 5 +++ ((+++ to ++++) indicates a ratio of 2.0 and above)"},
      {"measurement": "Relative ratio of TLR 4 transcription in AD patient / control PBMC's", "setting": "TLR 4", "value": "TLR 4 +++ ((+++ to ++++) indicates a ratio of 2.0 and above)"},
      {"measurement": "Relative ratio of TLR 1 transcription in AD patient / control PBMC's", "setting": "TLR 1", "value": "TLR 1 ++ ((++) indicates a ratio of 1.5-2.0)"},
      {"measurement": "Relative ratio of TLR 7 transcription in AD patient / control PBMC's", "setting": "TLR 7", "value": "TLR 7 ++ ((++) indicates a ratio of 1.5-2.0)"},
      {"measurement": "half-life", "setting": "[3]", "value": 4, "unit": "min"},
      {"measurement": "Relative ratio of TLR 2 transcription in AD patient / control PBMC's", "setting": "TLR 2", "value": "TLR 2 + ((+) indicates a ratio of 1.0-1.5)"},
      {"measurement": "VDR normalized expression response (in words)", "setting": "VDR; human monocytes, plus Aβ", "value": "modest increases"},
      {"measurement": "Relative gene expression VDR, increased expression relative to control cells", "setting": "VDR; [4]", "value": "+ ((+) <20-fold)"},
      {"measurement": "TLR3 expression response (in words)", "setting": "TLR3; U-937, plus Aβ (FIG. 3)", "value": "limited response"},
      {"measurement": "Relative gene expression TLR3, increased expression relative to control cells", "setting": "TLR3; [4]", "value": "+ ((+) <20-fold)"}
    ]}
  ]
}
